The values that follow are results of earlier work, collected in patent EP4454482A1, “PREPARATIONS COMPRISING OLEANOL GLYCOSIDES” (Analyticon Discovery GmbH, priority 2023, dated 2024).

For this data set the following is noted: water (20° dH) at 20 °C; solid active agent.

As for `Nc1nc2c(ncn2COCCO)c(=O)[nH]1` [Acyclovir, 2-Amino-1,9-dihydro-9-((2-hydroxyethoxy)methyl)-6H-Purin-6-one], the solubility in water result is “less than 5 g/L”.
